Results reported in ChEMBL document CHEMBL1154380, “Lipocarbazoles, secondary metabolites from Tsukamurella pseudospumae Acta 1857 with antioxidative activity” (J Nat Prod, 2009).
Calls of active or inactive are those of the source. The rule behind the calls is not given here.

Columns and labels:
[1] = system: Radical scavenging activity; test: Antioxidant activity assessed as DPPH radical scavenging activity after 30 mins; type: functional
Candida albicans = test: Antifungal activity against Candida albicans Tu 164 at 1 mg/ml after 48 hrs by disk diffusion assay; type: functional, organism-based
[2] = system: Streptomyces viridochromogenes; test: Antibacterial activity against Streptomyces viridochromogenes Tu 57 at 1 mg/ml after 24 hrs by disk diffusion assay; type: functional, organism-based
Pseudomonas fluorescens = test: Antibacterial activity against Pseudomonas fluorescens DSM 50090 at 1 mg/ml after 24 hrs by disk diffusion assay; type: functional, organism-based
Escherichia coli = test: Antibacterial activity against Escherichia coli K-12 at 1 mg/ml after 24 hrs by disk diffusion assay; type: functional, organism-based
Proteus mirabilis = test: Antibacterial activity against Proteus mirabilis ATCC 35501 at 1 mg/ml after 24 hrs by disk diffusion assay; type: functional, organism-based
Penicillium chrysogenum = test: Antifungal activity against Penicillium notatum Tu 136 at 1 mg/ml after 48 hrs by disk diffusion assay; type: functional, organism-based
Brevibacillus brevis = test: Antibacterial activity against Brevibacillus brevis DSM 30 at 1 mg/ml after 24 hrs by disk diffusion assay; type: functional, organism-based
Botrytis cinerea = test: Antifungal activity against Botrytis cinerea Tu 157 at 1 mg/ml after 48 hrs by disk diffusion assay; type: functional, organism-based
Staphylococcus aureus = test: Antibacterial activity against Staphylococcus aureus DSM 20231 at 1 mg/ml after 24 hrs by disk diffusion assay; type: functional, organism-based
Bacillus subtilis = test: Antibacterial activity against Bacillus subtilis DSM 10 at 1 mg/ml after 24 hrs by disk diffusion assay; type: functional, organism-based
[3] = system: Paenarthrobacter aurescens; test: Antibacterial activity against Arthrobacter aurescens DSM 20166 at 1 mg/ml after 24 hrs by disk diffusion assay; type: functional, organism-based
Saccharomyces cerevisiae = test: Antifungal activity against Saccharomyces cerevisiae ATCC 9080 at 1 mg/ml after 48 hrs by disk diffusion assay; type: functional, organism-based

| IC50 [1] | SMILES | Activity (Candida albicans) | Activity [2] | Activity (Pseudomonas fluorescens) | Activity (Escherichia coli) | Activity (Proteus mirabilis) | Activity (Penicillium chrysogenum) | Activity (Brevibacillus brevis) | Activity (Botrytis cinerea) | Activity (Staphylococcus aureus) | Activity (Bacillus subtilis) | Activity [3] | Activity (Saccharomyces cerevisiae) |
| --- | --- | --- | --- | --- | --- | --- | --- | --- | --- | --- | --- | --- | --- |
| 10.5 µM | CCCCCCCCCCCCCCCCCc1c(C)c(O)cc2c1[nH]c1ccccc12 | inactive | inactive | inactive | inactive | inactive | inactive | inactive | inactive | inactive | inactive | inactive | inactive |
| 4.4 µM | CCCOC(=O)c1cc(O)c(O)c(O)c1 [PROPYL GALLATE] | – | – | – | – | – | – | – | – | – | – | – | – |
| 8.7 µM | CCCCCCCC/C=C\CCCCCCCc1c(C)c(O)cc2c1[nH]c1ccccc12 [LIPOCARBAZOLE A3] | inactive | inactive | inactive | inactive | inactive | inactive | inactive | inactive | inactive | inactive | inactive | inactive |

Second part, the compound before the results:

| SMILES | IC50 [1] | Activity (Candida albicans) | Activity [2] | Activity (Pseudomonas fluorescens) | Activity (Escherichia coli) | Activity (Proteus mirabilis) | Activity (Penicillium chrysogenum) | Activity (Brevibacillus brevis) | Activity (Botrytis cinerea) | Activity (Staphylococcus aureus) | Activity (Bacillus subtilis) | Activity [3] | Activity (Saccharomyces cerevisiae) |
| --- | --- | --- | --- | --- | --- | --- | --- | --- | --- | --- | --- | --- | --- |
| O=C1O[C@H]([C@@H](O)CO)C(O)=C1O [ASCORBIC ACID] | 13.4 µM | – | – | – | – | – | – | – | – | – | – | – | – |
| CC/C=C\C/C=C\C/C=C\CCCCCCCc1c(C)c(O)cc2c1[nH]c1ccccc12 | – | inactive | inactive | inactive | inactive | inactive | inactive | inactive | inactive | inactive | inactive | inactive | inactive |
| CCCCC/C=C\C/C=C\CCCCCCCc1c(C)c(O)cc2c1[nH]c1ccccc12 | – | inactive | inactive | inactive | inactive | inactive | inactive | inactive | inactive | inactive | inactive | inactive | inactive |
